Reference: patent publication EP0649843B1, “THIAZOLINE DERIVATIVE” (TAISHO PHARMACEUTICAL CO. LTD, priority 1992, dated 1994)
Where a name gives a salt, the structure may show the parent alone.

Assays:
[1] = target: T1, fibrinogen receptor (GpIIb/IIIa) (Homo sapiens, UniProt P05106+P08514); experiment: Human blood platelet fibrinogen binding test; details: inhibition of binding of 125I labelled human fibrinogen to human blood platelet suspension; ADP final concentration 10 µM
T1 construct: gel filtration using Sepharose 2B column to give a blood platelet suspension; endogenous in cells; host or cells: human blood platelets (gel-filtered, from platelet rich plasma of a healthy donor)
Procedure: The precipitate was suspended in a Tyrode's solution (20% fetal bovine serum, 2 mM Mg^2+), followed by gel filtration using Sepharose 2B column to give a blood platelet suspension (1 x 10^9/ml) apart from fibrinogen. […] The binding inhibition rate of the test drug was then calculated.

[2] = system: Blood platelet aggregation; experiment: Inhibition test of human in vitro platelet aggregation (ADP-induced); type: cell-based
Procedure: The blood platelet counts of PRP were adjusted to (50 to 60) x 10^4/µl by diluting with PPP.
Blood platelet aggregation was determined according to the method of Born G.V.R., [Nature, vol. […] That is, a solution of the compound of Formula (I) as a test drug in dimethyl sulfoxide was adjust to the desired concentration with a physiological saline solution. 25 µl of the solution was added to 250 µl of PRP and incubated at 37°C for 3 minutes, and 25 µl of ADP (final concentration : 7 µM) was added thereto.

T1 sequence (P08514 32-887 limits assumed): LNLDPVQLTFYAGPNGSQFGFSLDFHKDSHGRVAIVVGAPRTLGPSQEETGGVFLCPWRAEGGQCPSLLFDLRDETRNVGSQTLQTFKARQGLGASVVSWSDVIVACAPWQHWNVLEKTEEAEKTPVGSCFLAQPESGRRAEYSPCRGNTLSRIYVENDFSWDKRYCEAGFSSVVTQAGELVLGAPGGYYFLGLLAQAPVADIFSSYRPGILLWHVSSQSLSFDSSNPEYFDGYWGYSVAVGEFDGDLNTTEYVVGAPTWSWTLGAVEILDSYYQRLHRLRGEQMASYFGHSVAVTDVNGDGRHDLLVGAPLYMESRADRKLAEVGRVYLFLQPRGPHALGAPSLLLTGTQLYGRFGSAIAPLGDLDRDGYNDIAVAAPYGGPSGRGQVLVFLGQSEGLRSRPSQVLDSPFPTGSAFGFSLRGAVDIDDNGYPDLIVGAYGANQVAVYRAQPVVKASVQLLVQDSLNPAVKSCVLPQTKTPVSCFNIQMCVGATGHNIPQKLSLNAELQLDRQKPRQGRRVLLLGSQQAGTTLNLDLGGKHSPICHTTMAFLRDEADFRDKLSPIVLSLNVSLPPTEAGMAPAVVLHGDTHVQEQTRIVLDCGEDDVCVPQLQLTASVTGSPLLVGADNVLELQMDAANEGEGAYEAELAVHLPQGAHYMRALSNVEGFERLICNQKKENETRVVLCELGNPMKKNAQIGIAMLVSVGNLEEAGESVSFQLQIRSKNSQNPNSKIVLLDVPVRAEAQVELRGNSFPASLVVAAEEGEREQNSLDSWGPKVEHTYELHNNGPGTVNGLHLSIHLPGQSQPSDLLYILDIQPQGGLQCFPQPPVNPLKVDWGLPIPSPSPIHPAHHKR
T1 sequence (P08514 891-1039 partner limits assumed): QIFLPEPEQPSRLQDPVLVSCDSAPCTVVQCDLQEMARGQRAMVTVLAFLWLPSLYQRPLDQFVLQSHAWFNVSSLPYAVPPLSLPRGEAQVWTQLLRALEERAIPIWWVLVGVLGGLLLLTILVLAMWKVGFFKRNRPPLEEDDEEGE
T1 sequence (P05106 27-788): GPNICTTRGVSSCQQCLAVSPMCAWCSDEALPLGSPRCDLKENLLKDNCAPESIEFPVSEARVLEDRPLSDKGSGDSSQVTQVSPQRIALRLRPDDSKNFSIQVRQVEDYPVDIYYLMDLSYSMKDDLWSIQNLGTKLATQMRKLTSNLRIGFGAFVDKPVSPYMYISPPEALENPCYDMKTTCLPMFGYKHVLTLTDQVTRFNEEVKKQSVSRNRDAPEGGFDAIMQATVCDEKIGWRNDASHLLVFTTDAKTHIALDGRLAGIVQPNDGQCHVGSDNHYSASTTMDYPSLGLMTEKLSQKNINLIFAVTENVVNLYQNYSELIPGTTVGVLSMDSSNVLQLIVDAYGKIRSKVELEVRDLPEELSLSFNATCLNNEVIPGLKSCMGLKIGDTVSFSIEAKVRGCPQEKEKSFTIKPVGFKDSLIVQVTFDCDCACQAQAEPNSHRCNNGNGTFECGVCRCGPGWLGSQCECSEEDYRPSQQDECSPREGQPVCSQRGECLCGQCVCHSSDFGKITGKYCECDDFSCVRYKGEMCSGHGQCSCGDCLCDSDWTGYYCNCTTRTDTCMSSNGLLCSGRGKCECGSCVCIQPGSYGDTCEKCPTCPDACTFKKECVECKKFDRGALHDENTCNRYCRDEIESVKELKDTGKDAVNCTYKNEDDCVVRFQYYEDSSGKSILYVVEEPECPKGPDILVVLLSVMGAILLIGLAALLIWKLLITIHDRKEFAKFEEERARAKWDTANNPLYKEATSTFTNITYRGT

IC50 [1] [nM] | IC50 ([2]; Homo sapiens, Platelet, 0.05 h) [nM] | Compound | IC50 ([2]; concentration causing 50% inhibition of the maximum aggregation, human PRP, ADP final concentration 7 µM, incubated at 37°C for 3 minutes) [nM]
2.7 | – | CNC(=N)c1ccc(C(=O)N=c2sc(C(=O)NCCC(=O)O)c(C)n2C)cc1 [Compound 7, N-(2-carboxyethyl)-2-[4-(N-methylamidino)benzoylimino]-3,4-dimethyl-3H-thiazoline-5-carboxamide hydrobromide] | –
7.9 | 14 | Cc1c(C(=O)NCCC(=O)O)sc(=NC(=O)c2ccc(C(=N)NCc3ccccc3)cc2)n1C [Compound 29] | –
– | 18 | CCCCn1c(C)c(C(=O)NCCC(=O)O)sc1=NC(=O)c1ccc(C(=N)N)cc1 [Compound 22] | –
– | 15 | Cc1c(C(=O)NCCC(=O)O)sc(=NC(=O)c2ccc(C(=N)N)cc2)n1C(C)C [Compound 27] | –
1.3 | – | Cc1c(C(=O)NCCC(=O)O)sc(=NC(=O)c2ccc(C(=N)N(C)C)cc2)n1C [Compound 37, N-(2-carboxyethyl)-2-[4-(N,N-dimethylamidino)benzoylimino]-3,4-dimethyl-3H-thiazoline-5-carboxamide hydrobromide] | –
– | 19 | Cc1c(C(=O)NCCC(=O)O)sc(=NC(=O)c2ccc(C(=N)N)cc2)n1Cc1ccccc1 [Compound 17] | –
6.3 | – | COC(=O)CCNC(=O)c1sc(=NC(=O)c2ccc(C#N)cc2)n(C(C)C)c1C [Compound 23] | –
1 | – | Cc1c(C(=O)NCCC(=O)O)sc(=NC(=O)c2ccc(C(=N)N(C)Cc3ccccc3)cc2)n1C [Compound 35, N-(2-carboxyethyl)-2-[4-(N-methyl-N-benzylamidino)benzoylimino]-3,4-dimethyl-3H-thiazoline-5-carboxamide hydrobromide] | –
5.1 | 17 | Cc1c(C(=O)NCCC(=O)O)sc(=NC(=O)c2ccc(C(=N)N)cc2)n1C [Compound 5, N-(2-carboxyethyl)-2-(4-amidinobenzoylimino)-3,4-dimetylthiazoline-5-carboxamide hydrobromide] | –
– | 20 | Cc1c(C(=O)NCCC(=O)O)sc(=NC(=O)c2ccc(C(=N)Nc3ccccc3)cc2)n1C [Compound 31, N-(2-carboxyethyl)-2-[4-(N-phenylamidino)benzoylimino]-3,4-dimethyl-3H-thiazoline-5-carboxamide hydrobromide] | –

Compound | IC50 [1] [nM] | IC50 ([2]; Homo sapiens, Platelet, 0.05 h) [nM] | IC50 ([2]; concentration causing 50% inhibition of the maximum aggregation, human PRP, ADP final concentration 7 µM, incubated at 37°C for 3 minutes) [nM]
3-[3-(4-amidinobenzoyl)benzamide]propionic acid [Control, reference compound] | 84.4 | – | 105
